ChEMBL document CHEMBL1201862, “PubChem BioAssay data set” (2004)
Calls of active or inactive are those of the source.

Key:
[1] = inhibitors of Vif binding to APOBEC3G peptide, primary screen, biochemical, TR-FRET, GST-Vif 1-94, biotin-A3G peptide, dose response retest (AID 1117319); type: functional;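 also: TR-FRET signal of purified GST-Vif binding a biotinylated A3G peptide; inhibitors lower the FRET signal by blocking Vif and A3G binding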
[2] = Vero cell cytotoxicity, dose response, cytotoxicity control for Vif-APOBEC3G degradation inhibitor project, Vero cells (AID 1117358); type: functional; settings: Human immunodeficiency virus 1, Vero
[3] = Glucagon-like peptide 1 release potency, NCI-H716 cell line, dose-response, half-maximal inhibitory concentration (AID 1117344); type: functional, cell-based
[4] = half-maximal inhibitory concentration for glucagon-like peptide-1 release, STC-1 cell line, dose-response (AID 1117345); type: functional, cell-based
[5] = Dose-response inhibition of insulin secretion in a rat insulinoma line at 5 mM glucose (AID 1117331); type: functional, cell-based; settings: INS-1E
[6] = target: Large T antigen (Simian virus 40, UniProt P03070); type: functional, Betapolyomavirus macacae;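 also: Confirmatory-stage PubChem screen for compounds that inhibit SV40 T antigen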
[7] = target: T1, Aminopeptidase N (Plasmodium falciparum FcB1/Columbia, UniProt O96935); experiment: P. falciparum M1AAP inhibitors, biochemical, fluorogenic H-Leu-NHMec substrate, 1536-well (AID 1445); design: species or system Plasmodium falciparum 3D7, 3D7
T1 sequence (O96935 whole entry): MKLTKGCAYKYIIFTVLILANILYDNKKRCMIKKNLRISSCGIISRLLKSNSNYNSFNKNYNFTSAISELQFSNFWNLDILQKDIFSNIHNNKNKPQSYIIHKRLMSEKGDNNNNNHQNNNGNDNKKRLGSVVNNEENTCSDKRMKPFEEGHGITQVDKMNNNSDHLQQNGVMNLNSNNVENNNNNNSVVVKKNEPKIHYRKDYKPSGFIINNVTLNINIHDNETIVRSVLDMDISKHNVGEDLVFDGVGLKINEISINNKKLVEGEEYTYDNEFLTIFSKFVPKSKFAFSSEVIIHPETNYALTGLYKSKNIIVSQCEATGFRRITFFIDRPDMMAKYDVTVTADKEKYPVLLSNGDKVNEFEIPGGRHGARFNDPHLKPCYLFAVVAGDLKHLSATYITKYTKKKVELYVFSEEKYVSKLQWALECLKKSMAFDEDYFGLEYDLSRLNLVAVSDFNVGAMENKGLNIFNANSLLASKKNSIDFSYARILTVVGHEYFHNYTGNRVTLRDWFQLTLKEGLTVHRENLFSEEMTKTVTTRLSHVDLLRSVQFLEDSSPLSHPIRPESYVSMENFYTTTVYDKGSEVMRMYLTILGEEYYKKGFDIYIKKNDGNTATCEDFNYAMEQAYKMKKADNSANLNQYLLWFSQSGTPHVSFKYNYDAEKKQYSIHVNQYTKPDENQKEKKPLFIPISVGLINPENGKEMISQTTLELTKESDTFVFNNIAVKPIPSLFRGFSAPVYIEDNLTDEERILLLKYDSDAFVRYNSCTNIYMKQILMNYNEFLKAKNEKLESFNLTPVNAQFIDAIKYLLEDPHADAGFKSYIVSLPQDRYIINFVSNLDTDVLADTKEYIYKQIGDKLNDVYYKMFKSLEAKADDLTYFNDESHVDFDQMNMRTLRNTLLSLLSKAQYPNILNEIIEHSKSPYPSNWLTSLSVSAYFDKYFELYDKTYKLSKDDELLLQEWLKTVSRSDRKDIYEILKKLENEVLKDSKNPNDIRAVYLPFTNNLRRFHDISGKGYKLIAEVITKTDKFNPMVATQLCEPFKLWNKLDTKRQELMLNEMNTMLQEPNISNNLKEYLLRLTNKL

[8] = target: Bifunctional protein GlmU (Mycobacterium tuberculosis, UniProt P9WMN3); experiment: Inhibitors of Mycobacterial Glucosamine-1-phosphate acetyl transferase (GlmU). Secondary screen.; design: species or system Mycobacterium tuberculosis H37Rv
[9] = target: Nonstructural protein 1 (Influenza A virus, UniProt Q194T2); type: functional, Influenza A virus (A/California/07/2009(H1N1))
[10] = target: Induced myeloid leukemia cell differentiation protein Mcl-1 (Homo sapiens, UniProt Q07820); type: functional
[11] = target: Genome polyprotein (dengue virus type 2, UniProt P29990); experiment: Dengue-2 NS5 methyltransferase inhibitors, primary screen, biochemical, confirmation dose response (AID 588689); type: functional
[12] = target: T2, High affinity choline transporter 1 (Homo sapiens, UniProt Q9GZV3); experiment: CHT inhibitors, dose response, cell-based, 5-point CRC, membrane potential dye (AID 504840); type: functional
T2 sequence (Q9GZV3 whole entry): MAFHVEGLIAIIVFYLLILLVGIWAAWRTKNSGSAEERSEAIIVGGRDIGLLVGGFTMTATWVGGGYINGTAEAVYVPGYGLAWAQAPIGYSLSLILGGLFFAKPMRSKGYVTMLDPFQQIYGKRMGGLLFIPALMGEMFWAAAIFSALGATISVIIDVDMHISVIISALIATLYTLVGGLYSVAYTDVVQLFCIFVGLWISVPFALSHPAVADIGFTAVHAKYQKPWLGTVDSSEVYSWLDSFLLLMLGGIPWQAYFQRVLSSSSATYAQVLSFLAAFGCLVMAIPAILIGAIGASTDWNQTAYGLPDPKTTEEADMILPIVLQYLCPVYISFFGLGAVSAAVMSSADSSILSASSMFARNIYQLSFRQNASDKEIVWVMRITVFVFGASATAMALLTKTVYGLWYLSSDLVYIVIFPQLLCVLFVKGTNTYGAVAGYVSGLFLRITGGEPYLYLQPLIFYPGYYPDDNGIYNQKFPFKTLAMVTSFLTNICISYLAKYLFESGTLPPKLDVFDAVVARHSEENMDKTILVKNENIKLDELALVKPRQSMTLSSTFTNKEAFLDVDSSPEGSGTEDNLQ

[13] = system: Vero; experiment: cells; type: functional; settings: Chlorocebus sabaeus
[14] = target: T3, Long-chain-fatty-acid--AMP ligase FadD28 (Mycobacterium tuberculosis, UniProt P9WQ59); experiment: Fluorescence polarization aasay to screen for inhibitors that compete for the binding of FadD28 to a bisubstrate Measured in Biochemical System Using Plate Reader - 2147-01_Inhibitor_Dose_CherryPick_Activity.; type: functional, Mycobacterium tuberculosis H37Rv
T3 sequence (P9WQ59 whole entry): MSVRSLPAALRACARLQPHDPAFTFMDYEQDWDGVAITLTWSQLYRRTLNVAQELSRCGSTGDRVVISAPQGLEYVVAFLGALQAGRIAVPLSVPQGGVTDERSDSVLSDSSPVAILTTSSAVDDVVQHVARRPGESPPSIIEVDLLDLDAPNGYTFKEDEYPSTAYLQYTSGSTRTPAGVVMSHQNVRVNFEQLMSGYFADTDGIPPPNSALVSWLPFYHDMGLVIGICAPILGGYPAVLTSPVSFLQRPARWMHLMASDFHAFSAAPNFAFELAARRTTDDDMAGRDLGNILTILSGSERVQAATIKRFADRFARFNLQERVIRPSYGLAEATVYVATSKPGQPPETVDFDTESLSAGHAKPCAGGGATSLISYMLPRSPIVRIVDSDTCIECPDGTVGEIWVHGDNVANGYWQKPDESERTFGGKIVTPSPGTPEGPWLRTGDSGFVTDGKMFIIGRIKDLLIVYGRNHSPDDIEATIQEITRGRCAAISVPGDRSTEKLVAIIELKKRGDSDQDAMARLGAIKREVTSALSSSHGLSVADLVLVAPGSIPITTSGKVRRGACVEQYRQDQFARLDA

[15] = system: Vero; experiment: Vero cell cytotoxicity, cytotoxicity control for flavivirus capping enzyme inhibitors (AID 588742); type: functional; settings: Chlorocebus sabaeus

Sequence of Genome polyprotein (P29990 2492-3391 limits assumed): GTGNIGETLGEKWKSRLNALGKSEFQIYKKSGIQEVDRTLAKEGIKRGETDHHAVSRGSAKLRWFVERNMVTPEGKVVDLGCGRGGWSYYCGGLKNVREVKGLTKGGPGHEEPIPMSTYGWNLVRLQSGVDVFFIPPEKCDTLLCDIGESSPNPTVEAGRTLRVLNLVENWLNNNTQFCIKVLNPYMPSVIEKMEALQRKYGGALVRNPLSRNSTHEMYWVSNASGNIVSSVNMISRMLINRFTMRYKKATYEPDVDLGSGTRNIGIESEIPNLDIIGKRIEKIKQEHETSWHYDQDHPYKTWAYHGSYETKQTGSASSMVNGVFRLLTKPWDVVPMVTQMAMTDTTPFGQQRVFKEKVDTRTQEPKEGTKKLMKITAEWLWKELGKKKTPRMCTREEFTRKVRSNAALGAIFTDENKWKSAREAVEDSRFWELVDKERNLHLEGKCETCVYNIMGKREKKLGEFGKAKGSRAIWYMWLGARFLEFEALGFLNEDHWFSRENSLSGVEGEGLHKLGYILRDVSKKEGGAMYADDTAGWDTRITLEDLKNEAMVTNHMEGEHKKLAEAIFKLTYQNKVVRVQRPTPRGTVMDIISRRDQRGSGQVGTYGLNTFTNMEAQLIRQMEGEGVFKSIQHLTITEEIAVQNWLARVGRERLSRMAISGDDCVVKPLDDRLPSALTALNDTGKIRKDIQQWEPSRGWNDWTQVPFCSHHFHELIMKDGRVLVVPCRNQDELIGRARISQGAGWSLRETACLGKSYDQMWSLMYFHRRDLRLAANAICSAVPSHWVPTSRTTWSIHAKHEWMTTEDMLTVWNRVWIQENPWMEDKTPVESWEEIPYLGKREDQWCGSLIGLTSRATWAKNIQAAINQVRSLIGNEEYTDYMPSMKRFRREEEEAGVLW
Sequence of Large T antigen (P03070 whole entry): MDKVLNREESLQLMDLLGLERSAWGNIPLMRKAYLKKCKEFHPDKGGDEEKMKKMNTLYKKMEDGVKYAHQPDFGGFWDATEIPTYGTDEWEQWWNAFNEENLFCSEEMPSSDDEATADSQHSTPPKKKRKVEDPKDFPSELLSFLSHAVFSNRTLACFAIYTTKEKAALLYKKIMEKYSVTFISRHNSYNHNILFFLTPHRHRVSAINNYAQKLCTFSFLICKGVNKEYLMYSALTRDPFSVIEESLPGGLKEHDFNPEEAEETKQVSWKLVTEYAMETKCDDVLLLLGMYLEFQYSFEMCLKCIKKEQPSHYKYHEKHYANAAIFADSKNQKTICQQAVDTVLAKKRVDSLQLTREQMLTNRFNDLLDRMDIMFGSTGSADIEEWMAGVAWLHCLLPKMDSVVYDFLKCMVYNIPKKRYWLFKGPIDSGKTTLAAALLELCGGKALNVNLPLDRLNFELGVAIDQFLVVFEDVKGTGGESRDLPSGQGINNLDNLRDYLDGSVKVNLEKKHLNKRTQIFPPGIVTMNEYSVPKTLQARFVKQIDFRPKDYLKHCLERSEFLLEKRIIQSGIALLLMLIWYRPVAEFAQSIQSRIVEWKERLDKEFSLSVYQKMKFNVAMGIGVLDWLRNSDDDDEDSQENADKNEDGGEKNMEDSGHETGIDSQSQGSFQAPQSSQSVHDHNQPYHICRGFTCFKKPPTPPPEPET
Sequence of Nonstructural protein 1 (Q194T2 whole entry): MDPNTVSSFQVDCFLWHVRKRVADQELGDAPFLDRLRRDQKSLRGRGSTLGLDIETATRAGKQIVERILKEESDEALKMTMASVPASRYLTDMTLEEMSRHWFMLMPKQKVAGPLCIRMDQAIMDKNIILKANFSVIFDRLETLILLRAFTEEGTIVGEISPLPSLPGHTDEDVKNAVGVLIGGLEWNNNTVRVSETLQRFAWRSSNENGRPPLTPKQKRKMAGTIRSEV
Sequence of Bifunctional protein GlmU (P9WMN3 whole entry): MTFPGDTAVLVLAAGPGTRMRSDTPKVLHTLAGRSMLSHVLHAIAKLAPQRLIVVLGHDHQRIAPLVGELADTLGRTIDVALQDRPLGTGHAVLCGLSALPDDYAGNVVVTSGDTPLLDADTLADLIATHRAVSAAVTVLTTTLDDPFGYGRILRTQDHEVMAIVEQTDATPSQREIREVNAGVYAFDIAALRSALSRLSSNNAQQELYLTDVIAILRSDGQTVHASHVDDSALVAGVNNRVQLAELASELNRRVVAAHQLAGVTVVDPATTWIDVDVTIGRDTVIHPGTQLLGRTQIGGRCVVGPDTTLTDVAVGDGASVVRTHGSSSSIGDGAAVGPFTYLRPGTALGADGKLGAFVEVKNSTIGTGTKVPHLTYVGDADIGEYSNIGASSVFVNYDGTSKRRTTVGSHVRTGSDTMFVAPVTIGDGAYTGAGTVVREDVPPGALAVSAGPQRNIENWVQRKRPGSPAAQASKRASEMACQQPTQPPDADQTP
Sequence of Induced myeloid leukemia cell differentiation protein Mcl-1 (Q07820 whole entry): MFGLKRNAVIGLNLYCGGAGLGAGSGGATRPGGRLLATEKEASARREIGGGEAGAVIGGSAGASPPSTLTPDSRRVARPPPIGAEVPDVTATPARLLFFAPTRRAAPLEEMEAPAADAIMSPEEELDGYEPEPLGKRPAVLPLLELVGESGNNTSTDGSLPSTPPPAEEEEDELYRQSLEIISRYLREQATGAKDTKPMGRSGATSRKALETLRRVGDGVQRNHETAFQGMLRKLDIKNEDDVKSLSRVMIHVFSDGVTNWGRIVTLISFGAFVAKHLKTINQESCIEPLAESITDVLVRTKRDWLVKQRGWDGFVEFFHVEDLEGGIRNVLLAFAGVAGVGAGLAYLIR

CC(C)N1CCC2(CC1)C(C#N)=C(N)NC(S)=C2C#N
IC50 [1]: > 100 µM (active) | CC50 [2]: > 40 µM (active)

CCOC(=O)c1ccccc1O [ETHYL SALICYLATE]
IC50 [3]: > 40 µM (inactive) | IC50 [4]: > 40 µM (inactive) | IC50 [5]: > 33.3 µM (inactive)

COc1cc(/C=C2/C(=O)c3cccc([N+](=O)[O-])c3C2=O)c(Br)cc1O
IC50 [6]: 13.9 µM (active) | IC50 [7]: 5.94 µM (active) | IC50 [8]: 60.9 µM (active) | IC50 [9]: 20.9 µM (active) | IC50 [10]: 1.39 µM (active) | IC50 [11]: 7.44 µM (active) | IC50 [12]: 9.13 µM (active) | CC50 [13]: 16.4 µM (active) | AC50 [14]: > 100 µM (inactive) | CC50 [15]: 34 µM (active)
